Test results published in publication PMC3158126, “Characterization of antigenic variants of hepatitis C virus in immune evasion” (Virology Journal, 2011).

How the values were obtained:
[1] = tested on: PBMC from a HCV-infected patient B3019; assay: T-cell proliferation (tritiated thymidine incorporation) with single wild type and variant peptides; assay type: cell-based, human; conditions: flow cytometry analysis of cells stimulated by wild type peptide
[2] = tested on: CD4+ cells from PBMC of HLA-DRB1*15-positive HCV-infected patients; assay: Intracellular cytokine staining and flow cytometry of purified CD4+ cells (Treg phenotypes), HCV+ patients; assay type: cell-based, human
Description: (§1) PBMCs were re-suspended at a concentration of 1 × 10^6 /ml in RPMI 1640 tissue culture medium as mentioned above in the description of the proliferation assay. 1 ml aliquots of PBMC were added to a 24-well tissue culture plate containing each wild type NS3_358-375 or variant pool, and medium alone. The concentrations of peptides are 5 μM for NS3_358-375 and 1 μM for each of variant peptides. After culturing for 66 hours, the PBMCs were treated with anti-human CD4 antibodies and magnetic micro-beads (Miltenyi Biotec, Auburn, CA) for positive selection of CD4 cells using a Magnetic Cell Separator (MACS, Miltenyi Biotec). The purity of CD4^+ cells obtained was 99.3% determined by Flow Cytometry.
(§2) The purified CD4^+ cells were treated with 0.5 ml of fix/permeabilizing solution (BD Pharmingen) for 10 minutes. After washing, the appropriate volume of specific fluorescent-labeled anti-CD25-ECD, anti-IFN-γ-FITC, anti-IL-10-PE, anti-TGF-β1-biotin and streptavidin-CyChrome were added to each of the tubes. One additional tube of CD4^+ cells were incubated with Foxp3-FITC, CD152 (CTLA-4)-PE and CD25-ECD. A tube of pooled CD4^+ cells from each culture was stained with isotype antibodies equivalent to each of the antibodies described above. In addition, four tubes of pooled CD4^+ cells were stained with each of the above antibodies alone as single-color controls which is necessary for color compensation. All tubes were incubated for 30 minutes in dark at room temperature. After washing, cells were re-suspended in 300 μl of wash buffer (BD Pharmingen), and a four color or three-color flow cytometry assay was performed within 24 hours at the Flow Cytometry Service Laboratory of the University of Illinois at Chicago. A total 1 × 10^5 cells were counted to determine the ratio of CD25^+, CD25^- and cytokine producing cells of each CD4^+ population.
Figure 3 Treg phenotypes induced by peptide NS3_358-375 and variant pools VP1 and VP2. Cell culture adn purification of CD4^+ cells and controls were the same as described in Figure 2. Intracellular staining and four-color flow cytometry using fluorescent-labeled antibodies to human CD25, IFN-γ, TGF-β and IL-10 were performed with purified CD4^+ cells. A pool from each test was used as an isotype control. A: Percentages of CD25^+ gated CD4^+ cells. […] B: Percentages of Th3 and Tr1 cells. Note that 58~67% of the CD25^+ cells were TGF-β^+ (sum of the upper two quadrants). A majority of the CD25^+IL-10^+ cells were also TGF-β^+ (the upper right quadrant). C: Percentages of CD25^- gated CD4^+ cells. D: Percentages of Th3 and Tr1 cells. […] Two representatives of eight experiments are shown. […]

[3] = tested on: CD4+ cells from PBMC of HLA-DRB1*15-positive healthy individuals; assay: Intracellular cytokine staining and flow cytometry of purified CD4+ cells (Treg phenotypes), HCV- healthy subjects; assay type: cell-based, human; conditions: median (range), n = 3 HLA-DRB1*15+ healthy subjects; NS3_358-375 5 μM or variant pool 1 μM each peptide, 66 hours
Description: as §1, §2
Supplementary file 1743-422X-8-377-S3.DOC: Additional file 3 Figure S2. CD4+CD25+ and CD4+CD25- Tregs of a HCV- healthy individual. Experiments, controls, and data analysis were the same as described in Figure 4. A: Percentages of CD25+ and CD25- gated CD4+ cells. B: Percentages of CD25+ Th3 and Tr1 cells. C: Percentages of CD25- Th3 and Tr1 cells. A single representative of three experiments is shown. Click here for file

[4] = tested on: CD4+ T cells of HCV-infected patient; assay: Foxp3 and CTLA-4 (CD152) expression on CD4+CD25+ and CD4+CD25- cells, flow cytometry; assay type: cell-based, human
Description: as §2
Figure 4 Characteristics of antigen-driven CD25^+ and CD25^- Tregs. Cellular culture and separation of CD4^+ T cells and controls were the same as described in Figure 2. The purified CD4^+ cells were stained with fluorescent-labeled antibodies for human CD25, CTLA-4 and Foxp3 followed by a flow cytometry assay. The effect of peptide NS3_358-375 and variant pools VP1 and VP2 on expression of Foxp3 (A) and CTLA-4 (B) on CD4^+CD25^- (blue) and CD4^+CD25^+ (red) T cells is shown. Median values for each population are shown in the boxes. One representative of two experiments is shown. […]

HLA-DRB1*1501 molecules = HLA-DRB1*1501 molecules (Homo sapiens, UniProt P01903+P01911); conditions: cited from earlier work
Source text: Our previous studies identified a CD4 epitope derived from the NS3 protein of HCV, NS3_358-375 [38]. […] Antigenic variants of the Th1 epitope were identified by RT-PCR, cloning and sequencing. Peptides of wild type NS3_358-375 and its variants (single or double amino acid substitutions) were synthesized and used in the current study (Table 1).

[5] = cells obtained at about 1.5 years of HCV infection, Figure S3
[6] = median (range), n = 6 HLA-DRB1*15+ HCV+ patients, NS3_358-375 5 μM or variant pool 1 μM each peptide, 66 hours

## VIKGGRHLIFCHSKKKCD [NS3_358-375]
[1]
  proportion of peripheral proliferating cells that were CD4+: greater than 95%
[2]; Figure 3A, representative experiment, NS3_358-375 5 μM, pools 1 μM each peptide, listed as wild-type peptide
  ratio of CD4+CD25+ cells (CD25+ gated CD4+ cells): 26.0%
[2]; Figure 3D, text value (upper two quadrants)
  percentage of CD25-TGF-β+ cells among CD4+CD25- cells: 12.7%
[2]; PBMCs from another DRB1*15+ patient infected with HCV over 20 years, Figure S4
  CD25-IL-10+ Tr1 cells: 25%
[2]; [5]
  CD25+ IL-10-secreting Tr1 cells: 2.9%
  CD25- IL-10-secreting Tr1 cells: 7.6%
[2]; [6]
  CD25+ of CD4+ cells, HCV+ patients: 21.6 (18 - 27) %
  IL-10+ of CD4+CD25+ cells, HCV+ patients: 6.51 (3.0 - 11) %
  TGFβ+ IL-10+ of CD4+CD25+ cells, HCV+ patients: 7.85 (5.0 - 12) %
  TGFβ+ of CD4+CD25+ cells, HCV+ patients: 55.4 (37 - 59) %
[3]
  CD25+ of CD4+ cells, HCV- subjects: 10.1 (10 - 14) %
  IL-10+ of CD4+CD25+ cells, HCV- subjects: 2.95 (2.6 - 3.2) %
  TGFβ+ IL-10+ of CD4+CD25+ cells, HCV- subjects: 0.67 (0.5 - 2.5) %
  TGFβ+ of CD4+CD25+ cells, HCV- subjects: 5.04 (2.0 - 8.5) %
[4]; CD25+ cells
  expression of Foxp3 and CTLA-4 compared to cells cultured with medium alone: down-regulated
[4]; Figure 4A, one representative of two experiments
  Foxp3 level in CD4+CD25+ cells (median value): 77.8
[4]; Figure 4B, one representative of two experiments
  CTLA-4 (CD152) level on CD4+CD25+ cells (median value): 38.4
HLA-DRB1*1501 molecules
  binding to HLA-DRB1*1501: binds to HLA-DRB1*1501 well
